From patent US20250034171A1, “IMIDAZOPYRIDINE AMIDES AND RELATED COMPOUNDS FOR USE IN THE TREATMENT OF BACTERIAL INFECTIONS” (priority 2021, published 2025) come the findings set out here.

Usually MIC90 stands for the lowest concentration that inhibits either 90% of growth or 90% of the strains tested, depending on the study.

Values after ≈ are worked out from the molar mass of the structure shown. Where two headings read alike, the source gives them in different places. Where only a bound is given, the exact number is not on record here.

The test deals with Mycobacterium tuberculosis strain H37Rv. Briefly: Test 2: MIC determination against M. tuberculosis, resazurin fluorescence. The class given is cell-based. The conditions noted are these: Test 2, M. tuberculosis H37Rv; for MIC90: read-out: Bacterial activity MIC90; for IC50: read-out: Bacterial activity pMIC50 (converted).
Where [1] appears, read: Mycobacterium tuberculosis, H37RV.

As to `CCc1nc2n(c1C(=O)NCc1ccc(-c3nc4n(n3)CC[C@H](C(F)(F)F)C4)cc1)C[C@H](C)CC2` (single isomer, unassigned) [Compound 65], under setting [1], the MIC90 was determined as 0.039 µM (≈ 0.019 µg/mL) and the IC50 is 13500 pM.
The corresponding values for `CCc1nc2n(c1C(=O)NCc1ccc(-c3nc4n(n3)CC[C@@H](C(F)(F)F)C4)cc1)CC[C@H](C)C2` (single isomer, unassigned) [Compound 66] are 0.24 µM (≈ 0.117 µg/mL) and 51300 pM.
The corresponding values for `CCc1nc2n(c1C(=O)NCc1ccc(-c3nc4n(n3)CC[C@H](C(F)(F)F)C4)cc1)CC[C@@H](C)C2` (single isomer, unassigned) [Compound 67] are 0.18 µM (≈ 0.0876 µg/mL) and 40700 pM.
On to `CCc1nc2n(c1C(=O)NCc1ccc(-c3nc4n(n3)CC[C@H](C(F)(F)F)C4)cc1)CC[C@H](C)C2` (single isomer, unassigned) [Compound 68], for which, under setting [1], the MIC90 worked out at 0.23 µM (≈ 0.112 µg/mL) and the IC50 was 47900 pM.
As to `CCc1nc2n(c1C(=O)NCc1ccc(-c3nc4n(n3)CC[C@H](C(F)(F)F)C4)cc1)C[C@@H](C)CC2` (single isomer, unassigned) [Compound 69], the “Bacterial activity pMIC50” value stood at 7.95 and the MIC90 turned out to be 0.031 µM (≈ 0.0151 µg/mL).
Turning to `CCc1nc2n(c1C(=O)NCc1ccc(-c3nc4n(n3)CC[C@@H](C(F)(F)F)C4)cc1)CC[C@@H](C)C2` (single isomer, unassigned) [Compound 70], under setting [1], the MIC90 stood at 0.23 µM (≈ 0.112 µg/mL) and the IC50 was 56200 pM.
For `CCc1nc2n(c1C(=O)NCc1ccc(-c3nc4n(n3)CC[C@@H](C(F)(F)F)C4)cc1)C[C@H](C)CC2` (single isomer, unassigned) [Compound 71], under setting [1], the MIC90 is 0.024 µM (≈ 0.0117 µg/mL) and the IC50 is 9550 pM.
`CCc1nc2n(c1C(=O)NCc1ccc(-c3nc4n(n3)CC[C@@H](C(F)(F)F)C4)cc1)C[C@@H](C)CC2` (single isomer, unassigned) [Compound 72]: under setting [1], the MIC90 is 0.042 µM (≈ 0.0204 µg/mL) and the IC50 was 13800 pM.
Take `CCc1nc2n(c1C(=O)NCc1ccc(-c3nc4n(n3)CC[C@H](C(F)(F)F)C4)cc1)C[C@@H](C)CC2` (single isomer, unassigned) [Compound 75]: the “Bacterial activity pMIC50” value came to 7.48 and the MIC90 was 0.086 µM (≈ 0.0418 µg/mL).
On the same counts, the results for `CCc1nc2n(c1C(=O)NCc1ccc(-c3nc4n(n3)CC[C@@H](C(F)(F)F)C4)c(F)c1)CCCC2` (single isomer, unassigned) [Compound 76] are 7.55 and 0.09 µM (≈ 0.0441 µg/mL).
The corresponding values for `CCc1nc2ccccn2c1C(=O)NCc1ccc(-c2nc3n(n2)CC[C@@H](C(F)(F)F)C3)c(F)c1` (single isomer, unassigned) [Compound 78] are 8.08 and 0.028 µM (≈ 0.0136 µg/mL).
As for `CCc1nc2ccccn2c1C(=O)NCc1ccc(-c2nc3n(n2)CC[C@H](C(F)(F)F)C3)c(F)c1` (single isomer, unassigned) [Compound 79], the “Bacterial activity pMIC50” value was 7.99 and the MIC90 is 0.035 µM (≈ 0.017 µg/mL).
For the molecule `CCc1nn2c(c1C(=O)NCc1ccc(-c3nc4n(n3)CC[C@H](C(F)(F)F)C4)cc1)C[C@H](C)CC2` (single isomer, unassigned) [Compound 81], under setting [1], the MIC90 amounted to 0.19 µM (≈ 0.0924 µg/mL) and the IC50 was 57500 pM.
On the same counts, the results for `CCc1nn2c(c1C(=O)NCc1ccc(-c3nc4n(n3)CC[C@@H](C(F)(F)F)C4)cc1)C[C@@H](C)CC2` (single isomer, unassigned) [Compound 82] are 0.087 µM (≈ 0.0423 µg/mL) and 30900 pM.
Take `CCc1nn2c(c1C(=O)NCc1ccc(-c3nc4n(n3)CC[C@@H](C(F)(F)F)C4)cc1)C[C@H](C)CC2` (single isomer, unassigned) [Compound 83]: under setting [1], the MIC90 came to 0.23 µM (≈ 0.112 µg/mL) and the IC50 is 63100 pM.
As to `CCc1nc2ncc(C)cn2c1C(=O)NCc1ccc(-c2nc3n(n2)CCC(C)C3)cc1` (single isomer, unassigned) [Compound 94], the “Bacterial activity pMIC50” value is 7.86 and the MIC90 was determined as 0.039 µM (≈ 0.0168 µg/mL).
On to `CCc1nc2ncc(C)cn2c1C(=O)NCc1ccc(-c2nc3n(n2)CC[C@@H](C(C)(F)F)C3)cc1` (single isomer, unassigned) [Compound 104], for which the “Bacterial activity pMIC50” value is 8.25 and the MIC90 amounted to 0.015 µM (≈ 0.00719 µg/mL).
On the same counts, the results for `CCc1nc2ncc(C)cn2c1C(=O)NCc1ccc(-c2nc3n(n2)CC[C@H](C(C)(F)F)C3)cc1` (single isomer, unassigned) [Compound 105] are 8.24 and 0.014 µM (≈ 0.00671 µg/mL).
The corresponding values for `CCc1nc2ncc(C)cn2c1C(=O)NCc1ccc(-c2cn3c(n2)CC(COC)CC3)cc1` (single isomer, unassigned) [Compound 118] are 7.48 and 0.083 µM (≈ 0.0381 µg/mL).
For `CCc1nc2n(c1C(=O)NCc1ccc(-c3nc4n(n3)CC[C@H](C(F)(F)F)C4)cc1)CC[C@@H](O)C2` (single isomer, unassigned) [Compound 131], under setting [1], the MIC90 is greater than 0.5 µM and the IC50 is greater than 501000 pM.
For `CCc1nc2n(c1C(=O)NCc1ccc(-c3nc4n(n3)CC[C@H](C(F)(F)F)C4)cc1)CC[C@H](O)C2` (single isomer, unassigned) [Compound 132], under setting [1], the MIC90 was greater than 0.45 µM and the IC50 was greater than 269000 pM.
The corresponding values for `CCc1nc2n(c1C(=O)NCc1ccc(-c3nc4n(n3)CC[C@H](C(F)(F)F)C4)cc1)CC[C@H](OC)C2` (single isomer, unassigned) [Compound 135] are greater than 0.44 µM and greater than 224000 pM.
Consider `CCc1nc2n(c1C(=O)NCc1ccc(-c3nc4n(n3)CC[C@H](C(F)(F)F)C4)cc1)CC[C@@H](C(F)(F)F)C2` (single isomer, unassigned) [Compound 136], for which, under setting [1], the MIC90 was greater than 0.5 µM and the IC50 was greater than 501000 pM.
The corresponding values for `CCc1nc2n(c1C(=O)NCc1ccc(-c3nc4n(n3)CC[C@H](C(F)(F)F)C4)cc1)CC[C@H](C(F)(F)F)C2` (single isomer, unassigned) [Compound 137] are greater than 0.5 µM and greater than 501000 pM.
The corresponding values for `CCc1nc2n(c1C(=O)NCc1ccc(-c3nc4n(n3)CC[C@H](C(F)(F)F)C4)cc1)CC[C@@H](OC)C2` (single isomer, unassigned) [Compound 139] are greater than 0.45 µM and greater than 182000 pM.
With `CCc1nc2ncc(C(F)(F)F)cn2c1C(=O)NCc1ccc(-c2nc3n(n2)CC[C@H](C)C3)cc1` (single isomer, unassigned) [Compound 191], under setting [1], the MIC90 is greater than 0.5 µM and the IC50 was greater than 501000 pM.
The corresponding values for `CCc1nc2ncc(C)cn2c1C(=O)NCc1ccc(-c2nc3n(n2)CCC(C(F)(F)F)C3)nn1` (stereo not drawn) [Compound 41] are greater than 0.5 µM and greater than 501000 pM.
Consider `CCc1nc2ncc(C)cn2c1C(=O)NCc1ccc(-c2nc3n(n2)CCC(C(F)(F)F)C3)nc1` (stereo not drawn) [Compound 43], for which, under setting [1], the MIC90 came out at 0.37 µM (≈ 0.179 µg/mL) and the IC50 was 155000 pM.
The corresponding values for `CCc1nc2ncc(C)cn2c1C(=O)NCc1cc(C)c(-c2nc3n(n2)CCC(C(F)(F)F)C3)c(F)c1` (stereo not drawn) [Compound 44] are 0.21 µM (≈ 0.108 µg/mL) and 45700 pM.
The corresponding values for `CCc1nc2ncc(C)cn2c1C(=O)NCc1cnc(-c2nc3n(n2)CCC(C(F)(F)F)C3)c(F)c1` (stereo not drawn) [Compound 45] are 1.05 µM (≈ 0.528 µg/mL) and 245000 pM.
